Results reported in ChEMBL document CHEMBL1201862, “PubChem BioAssay data set” (2004).
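Protocol summary: plate cells (96-well), add compound at 5 concentrations, incubate 48 h, interpolate endpoints linearly. Abbreviation: GI50, concentration required for 50% inhibition of growth.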 The source made the active and inactive calls. No stated cut-off is given here; in the data, active = GI50 up to about 1.1 µM and inactive = higher.

Legend:
Assay in all cases: inhibition of tumour cell growth, NCI panel, 48 h
A549 = system: A549
KM12 = system: KM12
SF-539 = system: SF-539
SF-295 = system: SF-295
SNB-19 = system: SNB-19
Malme-3M = system: Malme-3M
OVCAR-3 = system: OVCAR-3
U-251 = system: U-251
HOP-62 = system: HOP-62
HCT-116 = system: HCT-116
TK-10 = system: TK-10
NCI-H460 = system: NCI-H460
M14 = system: M14
IGROV-1 = system: IGROV-1
ACHN = system: ACHN
OVCAR-8 = system: OVCAR-8
HL-60 = system: HL-60

Measured: GI50

O=C(/N=C(/Nc1ccccc1)SCCS/C(=N\C(=O)c1ccccc1)Nc1ccccc1)c1ccccc1
inactive: A549 65.2 µM | KM12 62.5 µM | SF-539 68.2 µM | SF-295 58.9 µM | SNB-19 56.4 µM | Malme-3M > 100 µM | OVCAR-3 67.9 µM | U-251 79.8 µM | HOP-62 86.5 µM | HCT-116 46.8 µM | TK-10 > 100 µM | NCI-H460 44.3 µM | M14 60.5 µM | IGROV-1 > 100 µM | ACHN 55.7 µM | OVCAR-8 71.1 µM

O=C(CC1(O)C(=O)Nc2c(Cl)ccc(Cl)c21)c1ccc(Cl)cc1Cl (stereo unspecified)
inactive: A549 23.5 µM | KM12 16.5 µM | SF-539 19.2 µM | SF-295 23.2 µM | SNB-19 32.2 µM | Malme-3M 20.4 µM | OVCAR-3 16.2 µM | U-251 10 µM | HOP-62 24 µM | HCT-116 19.1 µM | TK-10 50.1 µM | NCI-H460 20.5 µM | M14 13.2 µM | IGROV-1 18.3 µM | ACHN 16.6 µM | OVCAR-8 20.7 µM

CC(=O)O[C@H]1CC2C=CC3C(CCC31)O2 (stereo partly specified)
inactive: A549 > 100 µM | SNB-19 > 100 µM | Malme-3M > 100 µM | OVCAR-3 > 100 µM | U-251 > 100 µM | HOP-62 > 100 µM | TK-10 > 100 µM | NCI-H460 > 100 µM | HL-60 80 µM | M14 > 100 µM | IGROV-1 > 100 µM | ACHN > 100 µM | OVCAR-8 > 100 µM

[O-][S+]1Cc2ccccc2CSS1 (stereo unspecified)
inactive: A549 19 µM | KM12 16.8 µM | SF-539 14.5 µM | SF-295 18.7 µM | SNB-19 35.5 µM | Malme-3M 13 µM | OVCAR-3 15.1 µM | U-251 14.3 µM | HCT-116 15 µM | TK-10 16.8 µM | NCI-H460 16.8 µM | HL-60 3.44 µM | M14 14 µM | IGROV-1 29.2 µM | ACHN 12.8 µM | OVCAR-8 14.5 µM

CC(C)C1C(=O)NC(CO)Cc2c[nH]c3c(C(c4c[nH]c5ccccc45)C(O)CO)ccc(c23)N1C (stereo unspecified)
inactive: A549 23.5 µM | KM12 > 100 µM | SF-539 > 100 µM | SF-295 37.2 µM | SNB-19 > 100 µM | OVCAR-3 > 100 µM | HCT-116 > 100 µM | TK-10 36.3 µM | NCI-H460 5.02 µM | HL-60 5.11 µM | M14 > 100 µM | IGROV-1 > 100 µM | ACHN 41.3 µM | OVCAR-8 > 100 µM

O=C1OC(CCCl)(c2ccccc2)CC1CN1CCOCC1 (stereo unspecified)
inactive: A549 80.5 µM | KM12 20.2 µM | SF-539 27.2 µM | SF-295 43 µM | Malme-3M 18.4 µM | OVCAR-3 17.8 µM | U-251 > 100 µM | HOP-62 50.5 µM | TK-10 16.4 µM | NCI-H460 67.3 µM | HL-60 9.77 µM | M14 20.4 µM | IGROV-1 23.6 µM | ACHN 32.2 µM | OVCAR-8 17.7 µM

CCOc1cn(C2OC(CO)C(O)C2O)c(=O)[nH]c1=O (stereo unspecified)
inactive: A549 > 100 µM | KM12 > 100 µM | SF-295 > 100 µM | SNB-19 > 100 µM | Malme-3M > 100 µM | OVCAR-3 > 100 µM | U-251 20.3 µM | HOP-62 > 100 µM | HCT-116 > 100 µM | TK-10 > 100 µM | NCI-H460 > 100 µM | HL-60 > 100 µM | M14 > 100 µM | IGROV-1 > 100 µM | ACHN > 100 µM | OVCAR-8 > 100 µM

Cc1cc2c(CC(=O)O)n[nH]c2c(C(=O)O)c1C
inactive: A549 > 100 µM | SF-539 > 100 µM | SF-295 > 100 µM | SNB-19 > 100 µM | Malme-3M > 100 µM | OVCAR-3 > 100 µM | U-251 > 100 µM | HOP-62 > 100 µM | HCT-116 > 100 µM | TK-10 > 100 µM | NCI-H460 > 100 µM | HL-60 > 100 µM | ACHN > 100 µM | OVCAR-8 > 100 µM

CCOc1ccc(N(CC(=O)N2CC(=O)Nc3cc(C)c(C)cc32)C(C)=O)cc1
inactive: A549 > 100 µM | KM12 > 100 µM | SF-539 > 100 µM | SF-295 > 100 µM | SNB-19 > 100 µM | Malme-3M > 100 µM | OVCAR-3 63.8 µM | U-251 > 100 µM | HOP-62 > 100 µM | HCT-116 > 100 µM | TK-10 > 100 µM | NCI-H460 > 100 µM | HL-60 > 100 µM | M14 > 100 µM | ACHN > 100 µM | OVCAR-8 > 100 µM

O=c1cc2n(c(=O)[nH]1)C1OC(C(O)C1O)[C@H]2CCO (stereo partly specified)
inactive: A549 > 100 µM | KM12 > 100 µM | SF-539 > 100 µM | SF-295 > 100 µM | SNB-19 > 100 µM | Malme-3M > 100 µM | U-251 > 100 µM | HOP-62 > 100 µM | TK-10 > 100 µM | NCI-H460 > 100 µM | HL-60 > 100 µM | IGROV-1 > 100 µM | ACHN > 100 µM | OVCAR-8 > 100 µM

O=C1CCC2(c3ccc(F)cc3)Nc3cc(Cl)ccc3N12 (stereo unspecified)
inactive: A549 59.4 µM | KM12 > 100 µM | SF-539 > 100 µM | SF-295 60.5 µM | SNB-19 > 100 µM | Malme-3M 59.7 µM | OVCAR-3 86.5 µM | U-251 > 100 µM | HOP-62 > 100 µM | HCT-116 67.8 µM | HL-60 63.4 µM | M14 > 100 µM | IGROV-1 > 100 µM | ACHN 54.6 µM | OVCAR-8 > 100 µM

CC(=O)NNc1ncc(C(=O)/C=C/c2ccccc2C)s1
inactive: A549 > 100 µM | KM12 > 100 µM | SF-539 > 100 µM | SF-295 > 100 µM | SNB-19 > 100 µM | Malme-3M > 100 µM | OVCAR-3 > 100 µM | U-251 > 100 µM | HOP-62 > 100 µM | TK-10 > 100 µM | NCI-H460 > 100 µM | HL-60 > 100 µM | IGROV-1 > 100 µM | ACHN > 100 µM | OVCAR-8 > 100 µM

CCC1CCC2CCCC(C)N12 (stereo unspecified)
inactive: A549 > 100 µM | KM12 > 100 µM | SF-539 > 100 µM | SF-295 > 100 µM | SNB-19 > 100 µM | Malme-3M > 100 µM | OVCAR-3 > 100 µM | U-251 > 100 µM | HOP-62 > 100 µM | HCT-116 > 100 µM | TK-10 > 100 µM | HL-60 > 100 µM | M14 > 100 µM | IGROV-1 > 100 µM | ACHN > 100 µM | OVCAR-8 > 100 µM
